Assays:
[1] = biological target: T1, DNA repair protein RAD51 homolog 1 (Homo sapiens) (UniProt Q06609); test: Induction of RAD51 in cisplatin-treated neonatal human skin fibroblast assessed as increase in survival at 7.5 uM relative to untreated control
T1 sequence (whole entry): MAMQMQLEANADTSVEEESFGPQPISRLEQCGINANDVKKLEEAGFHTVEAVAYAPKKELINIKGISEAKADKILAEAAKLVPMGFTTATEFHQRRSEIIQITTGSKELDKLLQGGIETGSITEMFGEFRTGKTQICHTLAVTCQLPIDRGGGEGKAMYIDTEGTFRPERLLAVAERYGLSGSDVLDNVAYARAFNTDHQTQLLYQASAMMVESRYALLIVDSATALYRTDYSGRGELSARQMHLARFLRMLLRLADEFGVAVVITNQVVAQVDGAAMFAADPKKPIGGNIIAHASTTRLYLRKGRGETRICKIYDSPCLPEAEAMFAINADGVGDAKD

[2] = biological target: T2, DNA repair and recombination protein RAD54-like (Homo sapiens, UniProt Q92698); test: Inhibition of RAD54 (unknown origin) ATPase activity assessed as generation of reactive oxygen species
T2 sequence (Q92698 whole entry): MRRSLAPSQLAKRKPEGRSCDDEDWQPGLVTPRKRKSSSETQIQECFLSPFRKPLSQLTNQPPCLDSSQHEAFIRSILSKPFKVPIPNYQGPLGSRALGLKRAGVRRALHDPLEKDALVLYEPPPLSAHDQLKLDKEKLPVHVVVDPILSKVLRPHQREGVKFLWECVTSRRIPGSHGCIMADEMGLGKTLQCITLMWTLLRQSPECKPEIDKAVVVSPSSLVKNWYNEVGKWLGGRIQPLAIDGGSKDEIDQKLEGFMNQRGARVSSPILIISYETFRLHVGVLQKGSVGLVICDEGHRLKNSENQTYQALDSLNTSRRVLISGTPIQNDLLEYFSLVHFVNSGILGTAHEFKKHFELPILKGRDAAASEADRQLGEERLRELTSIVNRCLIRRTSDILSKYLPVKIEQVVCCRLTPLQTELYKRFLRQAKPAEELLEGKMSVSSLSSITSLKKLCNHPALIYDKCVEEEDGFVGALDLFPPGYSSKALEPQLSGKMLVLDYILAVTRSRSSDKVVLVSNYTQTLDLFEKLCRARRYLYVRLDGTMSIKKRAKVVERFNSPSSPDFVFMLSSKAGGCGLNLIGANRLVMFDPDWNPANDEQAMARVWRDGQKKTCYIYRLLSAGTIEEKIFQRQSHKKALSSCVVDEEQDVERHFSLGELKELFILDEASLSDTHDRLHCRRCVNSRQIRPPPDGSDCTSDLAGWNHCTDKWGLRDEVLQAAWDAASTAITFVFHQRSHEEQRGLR

[3] = biological target: Bifunctional 3'-5' exonuclease/ATP-dependent helicase WRN (Homo sapiens, UniProt Q14191); test: Inhibition of WRN helicase (unknown origin)
Sequence of Bifunctional 3'-5' exonuclease/ATP-dependent helicase WRN (Q14191 whole entry): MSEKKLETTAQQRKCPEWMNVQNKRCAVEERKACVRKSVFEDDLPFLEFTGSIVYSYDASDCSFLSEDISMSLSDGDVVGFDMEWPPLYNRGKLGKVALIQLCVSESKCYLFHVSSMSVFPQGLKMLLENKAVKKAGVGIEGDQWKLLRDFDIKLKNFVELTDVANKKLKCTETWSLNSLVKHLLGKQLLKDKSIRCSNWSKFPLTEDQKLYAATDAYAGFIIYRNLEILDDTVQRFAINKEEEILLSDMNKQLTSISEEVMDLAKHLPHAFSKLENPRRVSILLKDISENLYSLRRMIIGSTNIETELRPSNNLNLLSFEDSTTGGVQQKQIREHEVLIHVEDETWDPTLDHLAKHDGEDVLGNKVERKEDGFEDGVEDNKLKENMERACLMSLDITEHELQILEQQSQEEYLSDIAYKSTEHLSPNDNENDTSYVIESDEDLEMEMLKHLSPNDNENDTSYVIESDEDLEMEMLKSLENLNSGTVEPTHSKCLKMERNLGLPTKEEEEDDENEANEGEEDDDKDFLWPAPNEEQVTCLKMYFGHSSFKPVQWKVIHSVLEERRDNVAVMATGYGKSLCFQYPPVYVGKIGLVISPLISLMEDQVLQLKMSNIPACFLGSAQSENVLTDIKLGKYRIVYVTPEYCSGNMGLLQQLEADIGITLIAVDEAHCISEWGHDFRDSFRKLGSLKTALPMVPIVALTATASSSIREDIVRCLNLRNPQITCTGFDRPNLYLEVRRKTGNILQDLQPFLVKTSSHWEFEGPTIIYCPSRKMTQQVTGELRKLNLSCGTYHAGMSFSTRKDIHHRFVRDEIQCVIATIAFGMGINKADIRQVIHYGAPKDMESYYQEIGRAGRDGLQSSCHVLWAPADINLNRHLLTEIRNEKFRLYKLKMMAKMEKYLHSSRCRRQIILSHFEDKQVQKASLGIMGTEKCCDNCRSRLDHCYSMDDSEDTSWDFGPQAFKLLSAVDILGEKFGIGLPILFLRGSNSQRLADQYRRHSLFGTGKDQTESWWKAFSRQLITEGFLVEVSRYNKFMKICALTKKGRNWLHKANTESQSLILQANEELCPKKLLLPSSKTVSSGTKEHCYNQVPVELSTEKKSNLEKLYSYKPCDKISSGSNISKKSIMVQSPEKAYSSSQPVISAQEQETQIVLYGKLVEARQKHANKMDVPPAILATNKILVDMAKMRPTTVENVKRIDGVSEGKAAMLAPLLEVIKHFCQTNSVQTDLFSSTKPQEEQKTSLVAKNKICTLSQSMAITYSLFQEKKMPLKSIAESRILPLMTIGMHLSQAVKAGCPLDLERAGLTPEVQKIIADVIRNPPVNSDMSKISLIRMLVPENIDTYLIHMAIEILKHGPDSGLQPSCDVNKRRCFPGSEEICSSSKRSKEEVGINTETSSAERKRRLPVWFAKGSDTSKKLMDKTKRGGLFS

[4] = biological target: DNA repair protein RAD51 homolog 1 (Homo sapiens) (UniProt Q06609); test: Inhibition of RAD51 (unknown origin) binding to ssDNA
[5] = biological target: T1, DNA repair protein RAD51 homolog 1 (Homo sapiens); test: Inhibition of RAD51 in human HeLa cells expressing DR-GFP construct assessed as reduction in […]-induced homologous recombination at 20 uM; type: cell-based
[6] = biological target: T1, DNA repair protein RAD51 homolog 1 (Homo sapiens); test: Inhibition of RAD51 in human MCF7 cells assessed as reduction in IR-induced RAD51 foci formation at 20 uM; type: cell-based

O=C(Nc1ccc(Br)cc1)c1ccc(Br)c(S(=O)(=O)NCc2ccccc2)c1
fold change (FC) [1]: 1.5

COC1=C(N)C(=O)c2nc(-c3nc(C(=O)O)c(C)c(-c4ccc(OC)c(OC)c4O)c3N)ccc2C1=O [STREPTONIGRIN]
EC50 [2]: 16.5 µM

O=C(Nc1ccc(F)c(C(F)(F)F)c1)Nc1nnc(-c2ccncc2)s1
IC50 [3]: 5 µM

CCC(=O)OCN1C(=O)C=CC1=O
IC50 [3]: 20 µM

COc1ccc(C2=C(N3CCOCC3)C(=O)N(c3ccc(Cl)c(Cl)c3)C2=O)cc1
EC50 [4]: 44 µM

O=S(=O)(Cc1ccccc1)N1C=Cc2ccccc2C1c1c[nH]c2ccccc12 (configuration not stated)
fold change (FC) [5]: 10 | fold change (FC) [6]: 2

Reference: ChEMBL document CHEMBL3352588, “Targeting the homologous recombination pathway by small molecule modulators” (Bioorg Med Chem Lett, 2014)
